These results are taken from patent US11891379B2, “Deuterated Defactinib compound and use thereof” (HINOVA PHARMACEUTICALS INC., priority 2018, dated 2024).

Broadly, the AUC is the area under the concentration-time curve, a measure of exposure. Usually Tmax stands for the time at which the peak concentration occurs.

A short description of data set [1]: Metabolic stability in mouse liver microsomes. The format is in vitro ADME. As to conditions: for half-life at 2 μM: mouse liver microsomes 0.5 mg/mL, test compound 2 μM, sampling 0-60 min, read-out: Half life t1/2 (min) in mouse liver microsomes; for metabolic stability in the liver microsomes compared with non-deuterated control defactinib: mouse liver microsomes, result in words. The protocol: (§1) Step 1. The mother solution was prepared according to the component ratio in Table 1 below:
(§2) Step 2: Two experiments were carried out as follows:
(§3) A) Adding reduced coenzyme II (NADPH): 20 mg/mL liver microsomes (10 μL) and 10 mM NADPH (40 μL) were added into the incubation experiment. The final concentrations of liver microsomes and NADPH were 0.5 mg/mL and 1 mM, respectively.
(§4) B) Without NADPH: 20 mg/mL liver microsomes (10 μL) and high pure water (40 μL) were added into the incubation experiment. The final concentration of liver microsomes was 0.5 mg/mL.
(§5) Step 3: The reaction began after adding 200 μM positive control (4 μL) or test compound. The positive control was verapamil in this experiment. The final concentration of the test compound was 2 μM.
(§6) Step 4: At the time points 0 min, 15 min, 30 min, 45 min, and 60 min, 50 μL solution was sampled from each reaction solution. Acetonitrile (4× volumes of reaction solution) and IS (100 nM alprazolam, 200 nM labetalol, 200 nM caffeine, and 2 μM ketoprofen) were added to the reaction solution. The sample was centrifuged at 3220 g gravity for 40 min. 100 μL high pure water was added into 100 μL supernatant and analyzed by LC-MS/MS.
(§7) Step 5: Data analysis: the peak area was determined from the extracted ion chromatogram. The slope value k was determined by linear regression of the natural logarithm obtained from the curve between the residual percentage of parent drug and the incubation time.
(§8) In vitro half-life (In vitro t1/2) was determined by the slope value: in vitro t1/2=−([…]/k In vitro intrinsic clearance (in vitro CLint, in […]) was converted from in vitro half-life t1/2 (min) using the following equation (mean value of repeated determinations): […]
(§9) Scale up intrinsic clearance (Scale up CLint, in mL/min/kg) was converted from in vitro half-life t1/2 (min) using the following equation (mean value of repeated determinations): […]
In general terms: Microsomes from liver hold many membrane-bound enzymes, among them those of drug oxidation.

A short description of data set [2]: Metabolic stability in rat liver microsomes. Type of data set: in vitro ADME. As to conditions: for half-life at 2 μM: rat liver microsomes 0.5 mg/mL, test compound 2 μM, sampling 0-60 min, read-out: Half life t1/2 (min) in rat liver microsomes; for metabolic stability in the liver microsomes compared with non-deuterated control defactinib: rat liver microsomes, result in words. The protocol: as §1, §2, §3, §4, §5, §6, §7, §8, §9

Data set [3] can be described thus: Metabolic stability in human liver microsomes. Type of data set: in vitro ADME. As to conditions: for half-life at 2 μM: human liver microsomes 0.5 mg/mL, test compound 2 μM, sampling 0-60 min, read-out: Half life t1/2 (min) in human liver microsomes; for metabolic stability in the liver microsomes compared with non-deuterated control defactinib: human liver microsomes, result in words. As to the method: as §1, §2, §3, §4, §5, §6, §7, §8, §9

Data set [4] is described as follows: Pharmacokinetic experiment in rats (PO, 10 mpk). The format is in vivo. Particulars: Sprague-Dawley (SD), rat, 10 mg/kg, male SD rats, PO by gavage, plasma; for AUC: read-out: Exposure dose AUC; for half-life: read-out: Half life t1/2 (converted); for Tmax: read-out: Peak hours tmax; for Cmax: read-out: Peak plasma concentration Cmax(ng/mL); for MRT inf: read-out: Retention time MRTinf. The protocol: Appropriate amount of drug (equivalent to 10 mg of the original drug) was accurately weighed, to which was first added 0.25 ml DMA to dissolve drug, and 0.5% CMC-Na was slowly added to 5 ml, then mixed well with ultrasonic and vortex. 0.2 ml final solution prepared was taken out and stored at −20° C. for concentration determination. Three healthy adult male SD rats (180-250 g) received drugs at 5 ml/kg by gavage after fasting overnight (free drinking water); 0.1 ml blood was collected from retroorbital venous plexus before administration and 0.5, 1, 2, 4, 6, 8, 12 and 24 h after administration, and plasma was separated by centrifugation at 4° C. for 5 min and stored at −20° C. for use. Then, LC/MS/MS method was used to determine the concentration of compounds in plasma.

Turning to `[2H]C([2H])([2H])NC(=O)c1ccc(Nc2ncc(C(F)(F)F)c(NCc3nccnc3N(C)S(C)(=O)=O)n2)cc1` [Compound 1, N-(trideuteromethyl)-4-((4-(((3-(N-methylmethylsulfonyl)pyrazin-2-yl)methyl)amino)-5-(trifluoromethyl)pyrimidin-2-yl)amino)benzamide], in data set [1], the half-life at 2 μM worked out at 87 min and the “metabolic stability in the liver microsomes compared with non-deuterated control defactinib” value is on record as “significantly improved”. Also, in data set [2], the half-life at 2 μM amounted to 151 min and the “metabolic stability in the liver microsomes compared with non-deuterated control defactinib” value is “significantly improved”. Besides, in data set [3], the half-life at 2 μM was determined as 894 min and the “metabolic stability in the liver microsomes compared with non-deuterated control defactinib” value is listed as “significantly improved”. Moreover, in data set [4], the exposure (AUC) is 2840 ng·h/mL, the half-life is 1.74 h, the time to peak (Tmax) turned out to be 0.67 h and the Cmax was found to be 1220 ng/mL. Besides, the MRT inf in data set [4] turned out to be 2.03 h.

For `[2H]C([2H])([2H])N(c1nccnc1CNc1nc(Nc2ccc(C(=O)NC)cc2)ncc1C(F)(F)F)S(C)(=O)=O` [Compound 2, N-methyl-4-((4-(((3-(N-deuteromethylmethanesulfonamido)pyrazin-2-yl)methyl)amino)-5-(trifluoromethyl)pyrimidin-2-yl)amino)benzamide], the half-life at 2 μM in data set [1] was 70 min; in data set [2], 47 min; in data set [3], 100 min. For the same compound, the “metabolic stability in the liver microsomes compared with non-deuterated control defactinib” value in data set [2] and in data set [3] was “slightly worse” throughout.

On to `[2H]C([2H])([2H])NC(=O)c1ccc(Nc2ncc(C(F)(F)F)c(NCc3nccnc3N(C([2H])([2H])[2H])S(C)(=O)=O)n2)cc1` [Compound 3, N-(trideuteromethyl)-4-((4-(((3-(N-deuteromethylmethanesulfonamido)pyrazin-2-yl)methyl)amino)-5-(trifluoromethyl)pyrimidin-2-yl)amino)benzamide], for which, in data set [1], the half-life at 2 μM was 406 min and the “metabolic stability in the liver microsomes compared with non-deuterated control defactinib” value is on record as “significantly improved”. Besides, in data set [2], the half-life at 2 μM turned out to be 370 min and the “metabolic stability in the liver microsomes compared with non-deuterated control defactinib” value was “significantly improved”. Also, in data set [3], the half-life at 2 μM came to 781 min and the “metabolic stability in the liver microsomes compared with non-deuterated control defactinib” value is on record as “significantly improved”. Also, in data set [4], the AUC was determined as 3740 ng·h/mL, the half-life is 2.46 h, the time to peak (Tmax) amounted to 1.67 h and the Cmax was determined as 971 ng/mL. Besides, the MRT inf in data set [4] was determined as 3.35 h.

For `CNC(=O)c1ccc(Nc2ncc(C(F)(F)F)c(NCc3nccnc3N(C)S(C)(=O)=O)n2)cc1` [Defactinib, N-methyl-4-((4-(((3-(N-methylmethylsulfonyl)pyrazin-2-yl)methyl)amino)-5-(trifluoromethyl)pyrimidin-2-yl)amino)benzamide], the half-life at 2 μM in data set [1] was 63 min. Further, the half-life at 2 μM in data set [2] was found to be 94 min. For the same compound, the half-life at 2 μM in data set [3] stood at 260 min. Also, in data set [4], the exposure (AUC) was determined as 1650 ng·h/mL, the half-life was 1.46 h, the time of peak concentration (Tmax) came out at 0.67 h and the Cmax was 643 ng/mL. The MRT inf in data set [4] amounted to 2.4 h.
